From US9447100B2, “Substituted pyrazolo[1,5-A] pyrimidines as calcium receptor modulating agents” (Takeda Pharmaceutical Company Limited, priority 2002, dated 2016) come the findings set out here.

A word on the melting point: it is the temperature of the solid-liquid transition.

Structures can show the parent of a compound that is named as a salt.

`CCC(CC)(NC(=O)c1cnn2c1NC(c1ccccc1)CC2(C)C)c1ccc(CO)cc1` (centres unmarked) [Example 739, N-(1-ethyl-1-(4-(hydroxymethyl)phenyl)propyl)-7,7-dimethyl-5-phenyl-4,5,6,7-tetrahydropyrazolo[1,5-a]pyrimidine-3-carboxamide] had a melting point of 178 to 179 °C. For `CCC1(CC)C[C@@H](O)CN1C(=O)c1cnn2c1N[C@@H](c1ccccc1)CC2(C)C` [Example 1115, (3R)-1-(((5R)-7,7-dimethyl-5-phenyl-4,5,6,7-tetrahydropyrazolo[1,5-a]pyrimidin-3-yl)carbonyl)-5,5-diethyl-3-pyrrolidinol], the melting point fell in the range of 250 to 252 °C. In the case of `Cc1cccc(C2CC(C)(C)n3nc(C)c(C(=O)O)c3N2)c1` (centres unmarked) [Example 946, 2,7,7-trimethyl-5-(3-methylphenyl)-4,5,6,7-tetrahydropyrazolo[1,5-a]pyrimidine-3-carboxylic acid], the melting point fell in the range of 146 to 148 °C. `CCOC(=O)c1ccc(C(CC)(CC)NC(=O)c2c(C)nn3c2NC(c2ccccc2)CC3(C)C)cc1` (centres unmarked) [Example 954, ethyl 4-(1-ethyl-1-(((2,7,7-trimethyl-5-phenyl-4,5,6,7-tetrahydropyrazolo[1,5-a]pyrimidin-3-yl)carbonyl)amino)propyl) benzoate]: the melting point lay within 152 to 153 °C. Molecule `CC1(C)CC(c2ccccc2)Nc2c(C(=O)NC34CC5CC(CC(C5)C3)C4)cnn21` (centres unmarked) [Example 374, N-(1-adamantyl)-7,7-dimethyl-5-phenyl-4,5,6,7-tetrahydropyrazolo[1,5-a]pyrimidine-3-carboxamide] registered a melting point of 235 to 236 °C.

Regarding `CCC(CC)(NC(=O)c1cnn2c1N[C@@H](c1ccccc1)CC2(C)C)c1ccc(SC)cc1` [Example 1067, (5R)-N-(1-ethyl-1-(4-(methylthio)phenyl)propyl)-7,7-dimethyl-5-phenyl-4,5,6,7-tetrahydropyrazolo[1,5-a]pyrimidine-3-carboxamide], the melting point was 151 to 152 °C. The value for `CCC(CC)(NC(=O)c1cnn2c1NC(c1ccccc1)CC2(C)C)c1ccc(C#N)cc1` (centres unmarked) [Example 574, N-(1-(4-cyanophenyl)-1-ethylpropyl)-7,7-dimethyl-5-phenyl-4,5,6,7-tetrahydropyrazolo[1,5-a]pyrimidine-3-carboxamide] was 237 to 238 °C; that for `CCOC(=O)CCCCOc1ccc(C(CC)(CC)NC(=O)c2cnn3c2NC(c2ccccc2)CC3(C)C)cc1` (centres unmarked) [Example 817, ethyl 5-(4-(1-(((7,7-dimethyl-5-phenyl-4,5,6,7-tetrahydropyrazolo[1,5-a]pyrimidin-3-yl)carbonyl)amino)-1-ethyl-propyl)phenoxy)pentanoate] was 120 to 121 °C; that for `CCC(CC)(NC(=O)c1c(C)nn2c1NC(c1cccs1)CC2(C)C)c1ccc(C)cc1` (centres unmarked) (as salt: HCl) [Example 956, N-(1-ethyl-1-(4-methylphenyl)propyl)-2,7,7-trimethyl-5-(2-thienyl)-4,5,6,7-tetrahydropyrazolo[1,5-a]pyrimidine-3-carboxamide] was 149 to 150 °C. As to `CCC(CC)(NC(=O)c1c(C)nn2c1N[C@@H](c1ccccc1)CC2(C)C)c1ccc(Cl)cc1` [Example 1042, (5R)-N-(1-(4-chlorophenyl)-1-ethylpropyl)-2,7,7-trimethyl-5-phenyl-4,5,6,7-tetrahydropyrazolo[1,5-a]pyrimidine-3-carboxamide], the melting point fell in the range of 128 to 129 °C. The value for `CCC(CC)(CCSC)NC(=O)c1cnn2c1NC(c1ccccc1)CC2(C)C` (centres unmarked) [Example 665, N-(1,1-diethyl-3-(methylthio)propyl)-7,7-dimethyl-5-phenyl-4,5,6,7-tetrahydropyrazolo[1,5-a]pyrimidine-3-carboxamide] was 154 to 155 °C; that for `CC1(C)CC(c2ccccc2)Nc2c(C(=O)O)c(OCCO)nn21` (centres unmarked) [Example 953, 2-(2-hydroxyethoxy)-7,7-dimethyl-5-phenyl-4,5,6,7-tetrahydropyrazolo[1,5-a]pyrimidine-3-carboxylic acid] was 137 to 139 °C; that for `CC(C)(CC1Cc2ccccc2C1)NC(=O)c1cnn2c1NC(c1ccccc1)CC2C(F)(F)F` (centres unmarked) [Example 292, N-(2-(2,3-dihydro-1H-inden-2-yl)-1,1-dimethylethyl)-5-phenyl-7-(trifluoromethyl)-4,5,6,7-tetrahydropyrazolo[1,5-a]pyrimidine-3-carboxamide] was 221 to 222 °C.

For the molecule `CCC(CC)(NC(=O)c1cnn2c1NC(c1ccccc1O)CC2(C)C)c1ccc(C(F)(F)F)cc1` (centres unmarked) [Example 629, N-(1-ethyl-1-(4-(trifluoro-methyl)phenyl)propyl)-5-(2-hydroxyphenyl)-7,7-dimethyl-4,5,6,7-tetrahydropyrazolo[1,5-a]pyrimidine-3-carboxamide], the melting point is 122 to 124 °C. The molecule `C=CCc1ccc(C(CC)(CC)NC(=O)c2cnn3c2NC(c2ccccc2)CC3(C)C)cc1` (centres unmarked) [Example 705, N-(1-(4-allylphenyl)-1-ethylpropyl)-7,7-dimethyl-5-phenyl-4,5,6,7-tetrahydropyrazolo[1,5-a]pyrimidine-3-carboxamide] showed a melting point of 147 to 148 °C.

`CCC(CC)(NC(=O)c1cnn2c1NC(c1ccccc1)CC2(C)C)c1ccc(Cl)nc1` (centres unmarked) [Example 573, N-(1-(6-chloro-3-pyridinyl)-1-ethylpropyl)-7,7-dimethyl-5-phenyl-4,5,6,7-tetrahydropyrazolo[1,5-a]pyrimidine-3-carboxamide]: the melting point lay in the range of 223 to 224 °C.

`O=C(c1cnn2c1NC(c1ccccc1)CC2C(F)(F)F)N1CCc2nn(-c3ccc(Cl)cc3)cc2C1` (centres unmarked) [Example 275, 2-(4-chlorophenyl)-5-((5-phenyl-7-(trifluoromethyl)-4,5,6,7-tetrahydropyrazolo[1,5-a]pyrimidin-3-yl)carbonyl)-4,5,6,7-tetrahydro-2H-pyrazolo[4,3-c]pyridine]: the melting point was in the range of 183 to 184 °C. The result for `CCC(CC)(NC(=O)c1cnn2c1NC(c1ccccc1)CC21CCCC1)c1ccc(C(F)(F)F)cc1` (centres unmarked) [Example 191, N-(1-ethyl-1-(4-(trifluoromethyl)phenyl)propyl)-5′-phenyl-5′,6′-dihydro-4′H-spiro[cyclopentane-1,7′-pyrazolo[1,5-a]pyrimidine]-3′-carboxamide] reads 205 to 207 °C; that for `CCC1(CC)CC(c2ccccc2)Nc2c(C(=O)NC34CC5CC(CC(C5)C3)C4)cnn21` (centres unmarked), 213 to 214 °C.

In turn, `CCC(CC)(NC(=O)c1c(C)nn2c1N[C@@H](c1ccccc1)CC2(C)C)c1ccc(Cl)c(C)c1` (as salt: HCl) [Example 1068, (5R)-N-(1-(4-chloro-3-methylphenyl)-1-ethylpropyl)-2,7,7-trimethyl-5-phenyl-4,5,6,7-tetrahydropyrazolo[1,5-a]pyrimidine-3-carboxamide] registered a melting point of 150 to 151 °C. Molecule `CCC1(CC)C[C@H](O)CN1C(=O)c1cnn2c1N[C@@H](c1ccccc1)CC2(C)C` (as salt: HCl) [Example 1118, (3S)-1-(((5R)-7,7-dimethyl-5-phenyl-4,5,6,7-tetrahydropyrazolo[1,5-a]pyrimidin-3-yl)carbonyl)-5,5-diethyl-3-pyrrolidinol] returned a melting point of 247 to 249 °C. The value for `O=C(NC1(C(=O)O)CCCCC1)c1cnn2c1N[C@H](c1ccccc1)C[C@@H]2C(F)(F)F` (stereo in doubt) [Example 369, 1-(((5-phenyl-7-(trifluoromethyl)-4,5,6,7-tetrahydropyrazolo[1,5-a]pyrimidin-3-yl)carbonyl)amino)cyclohexane carboxylic acid] was 236 to 237 °C; that for `CCC(CC)(NC(=O)c1cnn2c1NC(c1ccccc1)CC2(C)C)c1ccc(C)c(C)c1` (centres unmarked) (as salt: HCl) [Example 769, N-(1-(3,4-dimethylphenyl)-1-ethylpropyl)-7,7-dimethyl-5-phenyl-4,5,6,7-tetrahydropyrazolo[1,5-a]pyrimidine-3-carboxamide] was 137 to 138 °C; that for `CCOC(=O)CCCOc1ccc(C(CC)(CC)NC(=O)c2cnn3c2NC(c2ccccc2)CC3(C)C)cc1` (centres unmarked) [Example 770, ethyl 4-(4-(1-(((7,7-dimethyl-5-phenyl-4,5,6,7-tetrahydropyrazolo[1,5-a]pyrimidin-3-yl)carbonyl)amino)-1-ethyl-propyl)phenoxy)butanoate] was 101 to 102 °C.

Molecule `CCC(CC)(NC(=O)c1cnn2c1NC(c1ccccc1Cl)CC2(C)C)c1ccc(C)cc1` (centres unmarked) (as salt: HCl) [Example 961, 5-(2-chlorophenyl)-N-[1-ethyl-1-(4-methylphenyl)propyl]-7,7-dimethyl-4,5,6,7-tetrahydropyrazolo[1,5-a]pyrimidine-3-carboxamide] had a melting point of 128 to 130 °C. In turn, `CCC(C#N)NC(=O)c1cnn2c1N[C@H](c1ccccc1)C[C@@H]2C(F)(F)F` (stereo in doubt) [Example 283, N-(1-cyanopropyl)-5-phenyl-7-(trifluoromethyl)-4,5,6,7-tetrahydropyrazolo[1,5-a]pyrimidine-3-carboxamide] came in with a melting point of 180 to 181 °C. Molecule `CCCC(CC)(CC)NC(=O)c1cnn2c1N[C@@H](c1ccccc1)CC2(C)C` (as salt: HCl) [Example 1072, (5R)-N-(1,1-diethylbutyl)-7,7-dimethyl-5-phenyl-4,5,6,7-tetrahydropyrazolo[1,5-a]pyrimidine-3-carboxamide] gave a melting point of 185 to 186 °C. In turn, `CC(NC(=O)c1cnn2c1N[C@H](c1ccccc1)C[C@@H]2C(F)(F)F)C(=O)c1ccccc1` (stereo in doubt) [Example 291, N-(1-methyl-2-oxo-2-phenylethyl)-5-phenyl-7-(trifluoromethyl)-4,5,6,7-tetrahydropyrazolo[1,5-a]pyrimidine-3-carboxamide] showed a melting point of 178 to 179 °C.

In the case of `CCC(CC)(NC(=O)c1c(C)nn2c1N[C@H](c1ccccc1F)CC2(C)C)c1ccc(C)cc1` (as salt: HCl) [Example 1083, (5S)-N-(1-ethyl-1-(4-methylphenyl)propyl)-5-(2-fluorophenyl)-2,7,7-trimethyl-4,5,6,7-tetrahydropyrazolo[1,5-a]pyrimidine-3-carboxamide], the melting point was 203 to 204 °C.
